According to patent US6063780A, “Method of treating a tumor” (priority 1998, dated 2000):
Like-named read-outs stand apart in the source and are kept apart here.

Key:
[1] = tested on: MV-522 Human Lung Tumor; assay: Carboplatin, Paclitaxel and Tirapazamine vs MV-522 Human Lung Tumor Xenograft (confirming study, Example 3); details: for Final Tumor Wt. (Mean ± SEM) / Weight Change (Day 6): n=8; for Mean % Tumor Shrinkage: mice with partial shrinkage; for antitumor efficacy (in words): carboplatin experiment / general statement
Description: (§1) Nude mice weighing approximately 20 g were implanted s.c. by trocar with fragments of MV-522 human lung carcinomas harvested from s.c. growing tumors in nude mice hosts. When tumors were approximately 5 mm×5 mm in size (usually ten days after inoculation), the animals were pair-matched into treatment and control groups. Each group contained 8 tumored mice, each of which was ear-tagged and followed individually throughout the experiment. Tirapazamine was administered three hours prior to oxaliplatin, carboplatin and paclitaxel. The route and schedule for all drugs was i.p., qdxl.
(§2) Mice were weighed twice weekly, and tumor measurements were taken by calipers twice weekly, starting on Day 1. These tumor measurements were converted to mg tumor weight by a well-known formula, L×W^2 /2. The experiment was terminated when control tumors reached a size of 1 gram. Upon termination, all mice were weighed, sacrificed, and their tumors excised. Tumors were weighed, and the mean tumor weight per group was calculated.
(§3) With these agents, the final weight of a given tumor was subtracted from its own weight at the start of treatment on Day 1. This difference divided by the initial tumor weight is the % shrinkage. A mean % tumor shrinkage can be calculated from data from the mice in a group that experienced tumor regressions. If the MV-522 tumor completely disappeared in a mouse, this was considered a complete regression or complete tumor shrinkage.
Paclitaxel and tirapazamine were administered i.p. as a single bolus at doses of 20 mg/kg (2/3 MTD) and 70 mg/kg (MTD) respectively. Carboplatin was given as a single i.p. bolus at doses of 100 mg/kg (MTD) or 50 mg/kg (1/2 MTD).

[2] = tested on: MV-522 Human Lung Tumor; assay: Oxaliplatin, Paclitaxel and Tirapazamine vs MV-522 Human Lung Tumor Xenograft (Example 4); details: for % Tumor Growth Inhibition (TGI) / Actual Tumor Wt. (Mean ± SEM) / Weight Change (Day 6) / # of Toxic Deaths / Mice with Complete Shrinkage / Mice with partial Tumor Shrinkage: oxaliplatin 15 mg/kg (MTD), paclitaxel 20 mg/kg, tirapazamine 70 mg/kg, i.p., qdx1; for % Tumor Growth Inhibition (TGI): in the animals without shrinkage; for Actual Tumor Wt. (Mean ± SEM) / Weight Change (Day 6): n=8; for # of Toxic Deaths / Mice with Complete Shrinkage / Mice with partial Tumor Shrinkage: number of 8 mice; for antitumor efficacy (in words): oxaliplatin experiment
Description: as §1, §2, §3
Paclitaxel and tirapazamine were given at doses of 20 mg/kg and 70 mg/kg respectively (i.p.; qd×1).

[3] = tested on: FSaIIC Murine Fibrosarcoma; details: cited from earlier work
[4] = tested on: mouse SCCVII and other tumors; details: multiple injections in conjunction with fractionated irradiation; cited from earlier work
[5] = cited from earlier work
[6] = carboplatin 50 mg/kg (1/2 MTD), paclitaxel 20 mg/kg, tirapazamine 70 mg/kg where combined, i.p., qdx1, in the animals without shrinkage
[7] = carboplatin 50 mg/kg (1/2 MTD), paclitaxel 20 mg/kg, tirapazamine 70 mg/kg where combined, i.p., qdx1
[8] = carboplatin 50 mg/kg (1/2 MTD), paclitaxel 20 mg/kg, tirapazamine 70 mg/kg where combined, i.p., qdx1, number of 8 mice
[9] = carboplatin 100 mg/kg (MTD), paclitaxel 20 mg/kg, tirapazamine 70 mg/kg where combined, i.p., qdx1, in the animals without shrinkage
[10] = carboplatin 100 mg/kg (MTD), paclitaxel 20 mg/kg, tirapazamine 70 mg/kg where combined, i.p., qdx1
[11] = carboplatin 100 mg/kg (MTD), paclitaxel 20 mg/kg, tirapazamine 70 mg/kg where combined, i.p., qdx1, number of 8 mice
[12] = groups without carboplatin, paclitaxel 20 mg/kg, tirapazamine 70 mg/kg, i.p., qdx1
[13] = groups without carboplatin, paclitaxel 20 mg/kg, tirapazamine 70 mg/kg, i.p., qdx1, number of 8 mice

Compound	% Tumor Growth Inhibition (TGI) [1, 6] [%]	Final Tumor Wt. (Mean ± SEM) [1, 7] [mg]	Weight Change (Day 6) [1, 7]	# of Toxic Deaths [1, 8]	Mice with Complete Shrinkage [1, 8]	Mice with partial Tumor Shrinkage [1, 8]	% Tumor Growth Inhibition (TGI) [1, 9] [%]	Final Tumor Wt. (Mean ± SEM) [1, 10] [mg]	Weight Change (Day 6) [1, 10] [%]	# of Toxic Deaths [1, 11]	Mice with Complete Shrinkage [1, 11]	Mice with partial Tumor Shrinkage [1, 11]	antitumor efficacy (in words) [1]	% Tumor Growth Inhibition (TGI) [2] [%]	Actual Tumor Wt. (Mean ± SEM) [2] [mg]	Weight Change (Day 6) [2]	# of Toxic Deaths [2]	Mice with Complete Shrinkage [2]	Mice with partial Tumor Shrinkage [2]	antitumor efficacy (in words) [2]	also measured
Paclitaxel + Carboplatin	49.8	474.0 ± 93.5	+1.7%	0	0	0	68.8	241.4 ± 70.3	-1.3	0	0	2	even more effective	–	–	–	–	–	–	–	Mean % Tumor Shrinkage [1, 10]: 53.0%; Mean % Tumor Shrinkage ([1]; carboplatin 100 mg/kg (MTD), paclitaxel 20 mg/kg, tirapazamine 70 mg/kg where combined, i.p., qdx1, listed as paclitaxel-high dose carboplatin): 53%; Mice with partial Tumor Shrinkage ([1]; carboplatin 100 mg/kg (MTD), paclitaxel 20 mg/kg, tirapazamine 70 mg/kg where combined, i.p., qdx1, number of 8 mice, listed as paclitaxel-high dose carboplatin): two
O=C1[O][Pt]2([NH][C@@H]3CCCC[C@H]3[NH]2)[O]C1=O (relative stereo) [Oxaliplatin, cis-oxalato(trans-1-1,2-cyclohexanediamine) platinum (II)]	–	–	–	–	–	–	–	–	–	–	–	–	–	8.2	731.5 ± 62.6	+5.2%	0	0	0	not active	–
Nc1n[n+]([O-])c2ccccc2[n+]1[O-] [Tirapazamine, 3-amino-1,2,4-benzotriazine 1,4-dioxide]	–	–	–	–	–	–	–	–	–	–	–	–	not active as a single agent	2.5	769.1 ± 73.0	-6.9%	0	0	0	not active	dose enhancement / cytotoxic effect in combination ([3]; given just before single-dose cyclophosphamide, carmustine or melphalan): marked dose enhancement leading to synergistic cytotoxic effects on tumor cells; dose enhancement / cytotoxic effect in combination ([3]; given just prior to single-dose cisplatin): additive effect, except at the highest dose level of cisplatin; tumor cell kill with fractionated irradiation [4]: kills hypoxic cells, increases tumor cell kill while sparing normal tissue; % Tumor Growth Inhibition (TGI) [1, 12]: 5.7%; Final Tumor Wt. (Mean ± SEM) [1, 12]: 835.3 ± 111.2 mg; Weight Change (Day 6) [1, 12]: -1.7%; # of Toxic Deaths [1, 13]: 0; Mice with Complete Shrinkage ([1]; ip, 70 mg/kg): 0; Mice with partial Tumor Shrinkage ([1]; ip, 70 mg/kg): 0
CC(=O)OC1C(=O)C2(C)C(O)CC3OCC3(OC(C)=O)C2C(OC(=O)c2ccccc2)C2(O)CC(OC(=O)C(O)C(NC(=O)c3ccccc3)c3ccccc3)C(C)=C1C2(C)C [Paclitaxel, 5β,20-Epoxy-1,2α,4,7β,10β,13α-hexahydroxytax-11-en-9-one 4,10-diacetate 2-benzoate 13-ester with (2R, 3S)-N-benzoyl-3-phenylisoserine]	–	–	–	–	–	–	–	–	–	–	–	–	–	30.9	570.5	+0.9%	1	0	0	–	Final Tumor Wt. (Mean ± SEM) [1, 12]: 552.9 ± 68.6 mg; Weight Change (Day 6) [1, 12]: +0.4%; # of Toxic Deaths [1, 13]: 1; Mice with Complete Shrinkage [1, 13]: 0; Mice with partial Tumor Shrinkage [1, 13]: 0; # of Toxic Deaths ([1]; groups without carboplatin, paclitaxel 20 mg/kg, tirapazamine 70 mg/kg, i.p., qdx1, number of 8 mice, listed as paclitaxel): one toxic death; solubility in water (in words) ([5]; water): insoluble in water
N.N.O=C([O-])C1(C(=O)[O-])CCC1.[Pt+2] [Carboplatin, platinum, diammine [1,1-cyclobutane-dicarboxylato(2)-0,0']-, (SP-4-2)]	22.5	698.1 ± 160.5	-1.7%	0	0	0	39.7	556.5 ± 129.8	-1.5	0	0	0	–	–	–	–	–	–	–	–	% Tumor Growth Inhibition (TGI) ([1]; carboplatin 100 mg/kg (MTD), paclitaxel 20 mg/kg, tirapazamine 70 mg/kg where combined, i.p., qdx1, in the animals without shrinkage, listed as carboplatin): approximately 40%; pH of a 1% solution ([5]; 1% solution): 5-7; rate of aquation ([5]; compared with cisplatin): occurs at a slower rate than in the case of cisplatin; solubility in water ([5]; water): approximately 14 mg/mL
